Converted amounts (≈) assume the structure as drawn. The source made the active and inactive calls. The calls are words filed in the database; no cut-off is given here.
What was measured:
[1] = Cytotoxicity against HUVEC cells assessed as inhibition of cell proliferation incubated for 48 hrs by WST-8 reagent based assay; assay type: toxicity; details: human
Candida albicans [2] = test: Antifungal activity against Candida albicans 103 assessed as inhibition of fungal growth incubated for 48 to 72 hrs by microplate reader analysis; assay type: functional, organism-based; details: time 48-72 hrs
Cryptococcus neoformans [3] = test: Fungicidal activity against Cryptococcus neoformans H99 incubated for 72 hrs by time-kill kinetics analysis; assay type: functional
Cryptococcus neoformans [4] = test: Inhibition of urease production in Cryptococcus neoformans H99 at 0.125 microg/ml by photographic analysis relative to control; assay type: functional
[5] = Reduction in intracellular free iron ions level in Cryptococcus neoformans H99 at 4 microg/ml incubated for 24 hrs by absorbance based analysis relative to control; assay type: functional; set-up: scale not given: the % may be the effect or the level left; details: dose 4 µg/ml
Nakaseomyces glabratus [6] = test: Antifungal activity against Candida glabrata 0161 assessed as inhibition of fungal growth incubated up to 72 hrs by microplate reader analysis; assay type: functional, organism-based; details: dose 0.13-0.00049 µg/ml
Cryptococcus neoformans [7] = test: Antifungal activity against Cryptococcus neoformans 011409 assessed as inhibition of fungal growth incubated for 48 to 72 hrs by microplate reader analysis; assay type: functional; details: time 48-72 hrs
Cryptococcus neoformans [8] = test: Antifungal activity against Cryptococcus neoformans H99 assessed as inhibition of fungal growth at 0.5 to 4 microg/ml incubated for 48 hrs by spot-plating assay; assay type: functional, organism-based; details: dose 0.5-4 µg/ml
Nakaseomyces glabratus [9] = test: Upregulation of SOD1 gene expression in Candida glabrata 0161 incubated for 8 hrs by qRT-PCR analysis; assay type: functional
[10] = AUC (0 to t) in male ICR mouse at 20 mg/kg, po measured after 24 hrs by LC-MS/MS analysis; assay type: ADME, organism-based; details: in vivo
[11] = Antifungal activity against Cryptococcus gattii 01063P assessed as inhibition of fungal growth incubated for 48 to 72 hrs by microplate reader analysis; assay type: functional; details: time 48-72 hrs
[12] = Half-life in male ICR mouse at 20 mg/kg, po measured after 24 hrs by LC-MS/MS analysis; assay type: ADME, organism-based; details: in vivo
Cryptococcus neoformans [13] = test: Inhibition of matured biofilm in Cryptococcus neoformans H99 at 2 to 32 microg/ml incubated for 24 hrs by XTT reagent based assay; assay type: functional, organism-based; details: dose 2-32 µg/ml
Nakaseomyces glabratus [14] = test: Upregulation of TRR1 gene expression in Candida glabrata 0161 incubated for 8 hrs by qRT-PCR analysis; assay type: functional
Cryptococcus neoformans [15] = test: Upregulation of GPX1 gene expression in Cryptococcus neoformans H99 at 4 microg/ml incubated for 8 hrs by qRT-PCR analysis; assay type: functional; details: dose 4.0 µg/ml
Cryptococcus neoformans [16] = test: Induction of morphological changes in Cryptococcus neoformans H99 assessed as vacuole lysis at 4 microg/ml incubated for 8 hrs by transmission electron microscopic analysis; assay type: functional, organism-based; details: dose 4.0 µg/ml
[17] = Cmax in male ICR mouse at 20 mg/kg, po measured after 24 hrs by LC-MS/MS analysis; assay type: ADME, organism-based; details: in vivo
Cryptococcus neoformans [18] = test: Upregulation of TRX1 gene expression in Cryptococcus neoformans H99 at 4 microg/ml incubated for 8 hrs by qRT-PCR analysis; assay type: functional; details: dose 4.0 µg/ml
[19] = AUC (0 to infinity) in male ICR mouse at 2 mg/kg, iv measured after 24 hrs by LC-MS/MS analysis; assay type: ADME, organism-based; details: in vivo
Nakaseomyces glabratus [20] = test: Induction of oxidative damage Candida glabrata 0161 assessed as increase in MDA level incubated for 24 hrs; assay type: functional, organism-based
Nakaseomyces glabratus [21] = test: Reduction in intracellular free iron ions level in Candida glabrata 0161 incubated for 24 hrs by absorbance based analysis; assay type: functional
Cryptococcus neoformans [22] = test: Antifungal activity against Cryptococcus neoformans H99 infected in cryptococcosis female ICR mouse model assessed as intact cellular structures in brain cortex at 20 mg/kg, ip pre-infected with fungi for 3 hrs followed by compound administration and measured after 5 days by H and E staining based analysis; assay type: functional, organism-based; details: time 5.0 day
[23] = Volume of distribution at steady state in male ICR mouse at 2 mg/kg, iv measured after 24 hrs by LC-MS/MS analysis; assay type: ADME, organism-based; details: in vivo, read-out: Vdss
[Candida] auris [24] = Antifungal activity against Candida auris 15448 assessed as inhibition of fungal growth incubated for 48 to 72 hrs by microplate reader analysis; assay type: functional, organism-based; details: Candidozyma auris, time 48-72 hrs
Cryptococcus neoformans [25] = test: Induction of morphological changes in Cryptococcus neoformans H99 assessed as cell membrane damage by measuring plasmolysis at 4 microg/ml incubated for 8 hrs by transmission electron microscopic analysis; assay type: functional, organism-based; details: dose 4.0 µg/ml
Nakaseomyces glabratus [26] = test: Antifungal activity against Candida glabrata 0161 assessed as inhibition of fungal cell colony formation at 0.5 microg/ml incubated for 48 hrs by spot-plating assay; assay type: functional, organism-based; details: dose 0.5 µg/ml
Cryptococcus neoformans [27] = test: Antifungal activity against Cryptococcus neoformans H99 assessed as inhibition of fungal growth by measuring fold increase in MIC in presence of Fe(II) ion; assay type: functional
Cryptococcus neoformans [28] = test: Induction of oxidative damage in Cryptococcus neoformans H99 assessed as increase in MDA level at 4 microg/ml incubated for 24 hrs relative to control; assay type: functional; details: dose 4 µg/ml
Cryptococcus neoformans [29] = test: Inhibition of biofilm formation in Cryptococcus neoformans H99 at 32 microg/ml incubated for 24 hrs by XTT reagent based assay relative to control; assay type: functional
Nakaseomyces glabratus [30] = test: Fungistatic activity against Candida glabrata 0161 assessed as inhibition of fungal growth at 0.031 microg/ml incubated up to 72 hrs by microplate reader analysis; assay type: functional, organism-based; details: dose 0.031 µg/ml
[Candida] auris [31] = Antifungal activity against Candida auris 0029 assessed as inhibition of fungal growth incubated for 48 to 72 hrs by microplate reader analysis; assay type: functional, organism-based; details: Candidozyma auris, time 48-72 hrs
[32] = Tmax in male ICR mouse at 2 mg/kg, iv measured after 24 hrs by LC-MS/MS analysis; assay type: ADME, organism-based; details: in vivo
Cryptococcus neoformans [33] = test: Upregulation of SOD1 gene expression in Cryptococcus neoformans H99 at 4 microg/ml incubated for 8 hrs by qRT-PCR analysis; assay type: functional; details: dose 4.0 µg/ml
[34] = Oral bioavailability in male ICR mouse at 20 mg/kg measured after 24 hrs by LC-MS/MS analysis; assay type: ADME, organism-based; details: in vivo
Candida albicans [35] = test: Antifungal activity against Candida albicans SC5314 assessed as inhibition of fungal growth incubated for 48 to 72 hrs by microplate reader analysis; assay type: functional, organism-based; details: time 48-72 hrs
Nakaseomyces glabratus [36] = test: Antifungal activity against Candida glabrata 0161 assessed as inhibition of fungal growth incubated for 48 to 72 hrs by microplate reader analysis; assay type: functional; details: time 48-72 hrs
Nakaseomyces glabratus [37] = test: Upregulation of CAT1 gene expression in Candida glabrata 0161 incubated for 8 hrs by qRT-PCR analysis; assay type: functional
[38] = Clearance in male ICR mouse at 2 mg/kg, iv measured after 24 hrs by LC-MS/MS analysis; assay type: ADME, organism-based; details: in vivo
[39] = Cmax in male ICR mouse at 2 mg/kg, iv measured after 24 hrs by LC-MS/MS analysis; assay type: ADME, organism-based; details: in vivo
Cryptococcus neoformans [40] = test: Induction of morphological changes in Cryptococcus neoformans H99 assessed as mitochondrial lysis at 4 microg/ml incubated for 8 hrs by transmission electron microscopic analysis; assay type: functional, organism-based; details: dose 4.0 µg/ml
Nakaseomyces glabratus [41] = test: Antifungal activity against Candida glabrata 0161 assessed as inhibition of fungal growth at <0.0078 microg/ml incubated for 72 hrs by microplate reader analysis; assay type: functional, organism-based; details: dose < 0.0078 µg/ml
Cryptococcus neoformans [42] = test: Antifungal activity against Cryptococcus neoformans H99 assessed as inhibition of fungal growth incubated for 48 to 72 hrs by microplate reader analysis; assay type: functional; details: time 48-72 hrs
Cryptococcus neoformans [43] = test: Fungicidal activity against Cryptococcus neoformans H99 at 32 microg/ml incubated for 72 hrs by time-kill kinetics analysis; assay type: functional, organism-based; details: dose 32.0 µg/ml

SMILES: Nc1cc(=O)n(C(=S)Nc2ccc(C3CCCCC3)cc2)[nH]1
- IC50 at 48 h [1]: 0.64 µg/mL (≈ 2.02 µM)
- Activity (Candida albicans [2]): Active
- MFC (Cryptococcus neoformans [3]): 16 µg/mL (≈ 50.6 µM)
- inhibition at 0.125 µg/mL (Cryptococcus neoformans [4]): 100%
- Activity [5]: ~80%
- Activity (Nakaseomyces glabratus [6]): Dose-dependent-effect
- MIC80 (Cryptococcus neoformans [7]): 1.2 10^-4 ug/ml
- Activity (Cryptococcus neoformans [8]): Active
- Activity (Nakaseomyces glabratus [9]): Active
- AUC(0-t) at 24 h [10]: 4600 ng·h/mL
- MIC80 [11]: 1.2 10^-4 ug/ml
- half-life [12]: 87.6 min
- inhibition (Cryptococcus neoformans [13]): Active; Better Inhibitory Effect Observed Under High Concentration
- Activity (Nakaseomyces glabratus [14]): Active
- Activity (Cryptococcus neoformans [15]): Active
- Activity (Cryptococcus neoformans [16]): Active
- Cmax [17]: 1720 ng/mL
- Activity (Cryptococcus neoformans [18]): Active
- AUC(0-inf) [19]: 2100 ng·h/mL
- Activity (Nakaseomyces glabratus [20]): Active
- Activity (Nakaseomyces glabratus [21]): Active
- Activity (Cryptococcus neoformans [22]): Active
- Vd [23]: 1.47 L/kg
- Activity ([Candida] auris [24]): Active
- Activity (Cryptococcus neoformans [25]): Active
- Activity (Nakaseomyces glabratus [26]): Active
- fold change (FC) (Cryptococcus neoformans [27]): ~1000
- Activity (Cryptococcus neoformans [28]): ~20%
- inhibition at 32 µg/mL (Cryptococcus neoformans [29]): 77%
- Activity (Nakaseomyces glabratus [30]): Active; Significantly Better Activity Observed Than Fluconazole At 8 Microg/Ml
- Activity ([Candida] auris [31]): Active
- Tmax [32]: 4.98 min
- Activity (Cryptococcus neoformans [33]): Active
- bioavailability [34]: 22.6%
- Activity (Candida albicans [35]): Active
- MIC80 (Nakaseomyces glabratus [36]): 0.38 nM (≈ 0.12 ng/mL)
- Activity (Nakaseomyces glabratus [37]): Active
- clearance [38]: 16.2 mL/min/kg
- Cmax [39]: 2810 ng/mL
- Activity (Cryptococcus neoformans [40]): Active
- Activity (Nakaseomyces glabratus [41]): Not active; Decrease In Inhibitory Potency Observed
- MIC80 (Cryptococcus neoformans [42]): 0.38 nM (≈ 0.12 ng/mL)
- Activity (Cryptococcus neoformans [43]): inactive
